In brackets after ≈: the same amount, converted by molar mass. Activity calls are given as the source filed them. No cut-off for these calls is given here.
How the values were obtained:
Assay type in all cases: functional
[1] = tested on: Geobacillus stearothermophilus; test: Antibacterial activity against Bacillus stearothermophilus MTCC 8508 at 50 ug/mL by agar well diffusion method; conditions: for zone of inhibition at 50 µg/mL: read-out: DIZ
Bacillus subtilis [2] = test: Antibacterial activity against Bacillus subtilis MTCC 8509 at 50 ug/mL by agar well diffusion method; conditions: for zone of inhibition at 50 µg/mL: read-out: DIZ
[3] = tested on: Geobacillus stearothermophilus; test: Antibacterial activity against Bacillus stearothermophilus MTCC 8508 at 100 ug/mL by agar well diffusion method; conditions: read-out: DIZ
[4] = tested on: Geobacillus stearothermophilus; test: Antibacterial activity against Bacillus stearothermophilus MTCC 8508 at 10 ug/mL by agar well diffusion method; conditions: for zone of inhibition at 10 µg/mL: read-out: DIZ
Pseudomonas putida [5] = test: Antibacterial activity against Pseudomonas putida MTCC 121 after 24 hrs; conditions: MTCC 121, 24 h
Pseudomonas putida [6] = test: Antibacterial activity against Pseudomonas putida MTCC 121 at 50 ug/mL by agar well diffusion method; conditions: read-out: DIZ
Escherichia coli [7] = test: Antibacterial activity against Escherichia coli MTCC 51 at 10 ug/mL by agar well diffusion method; conditions: for zone of inhibition at 10 µg/mL: read-out: DIZ
Escherichia coli [8] = test: Antibacterial activity against Escherichia coli MTCC 51 at 100 ug/mL by agar well diffusion method; conditions: read-out: DIZ
Bacillus subtilis [9] = test: Antibacterial activity against Bacillus subtilis MTCC 8509 at 10 ug/mL by agar well diffusion method; conditions: for zone of inhibition at 10 µg/mL: read-out: DIZ
[10] = tested on: Geobacillus stearothermophilus; test: Antibacterial activity against Bacillus stearothermophilus MTCC 8508 after 24 hrs; conditions: MTCC 8508, 24 h
Pseudomonas putida [11] = test: Antibacterial activity against Pseudomonas putida MTCC 121 at 100 ug/mL by agar well diffusion method; conditions: read-out: DIZ
Bacillus subtilis [12] = test: Antibacterial activity against Bacillus subtilis MTCC 8509 at 100 ug/mL by agar well diffusion method; conditions: read-out: DIZ
Escherichia coli [13] = test: Antibacterial activity against Escherichia coli MTCC 51 at 50 ug/mL by agar well diffusion method; conditions: for zone of inhibition at 50 µg/mL: read-out: DIZ
Pseudomonas putida [14] = test: Antibacterial activity against Pseudomonas putida MTCC 121 at 10 ug/mL by agar well diffusion method; conditions: for zone of inhibition at 10 µg/mL: read-out: DIZ
Escherichia coli [15] = test: Antibacterial activity against Escherichia coli MTCC 51 after 24 hrs; conditions: MTCC 51, 24 h
Bacillus subtilis [16] = test: Antibacterial activity against Bacillus subtilis MTCC 8509 after 24 hrs; conditions: MTCC 8509, 24 h

SMILES	zone of inhibition at 50 µg/mL [1] [mm]	zone of inhibition at 50 µg/mL (Bacillus subtilis [2]) [mm]	zone of inhibition at 100 µg/mL [3] [mm]	zone of inhibition at 10 µg/mL [4] [mm]	MIC (Pseudomonas putida [5]) [mg/L]	zone of inhibition at 50 µg/mL (Pseudomonas putida [6]) [mm]	zone of inhibition at 10 µg/mL (Escherichia coli [7]) [mm]	zone of inhibition at 100 µg/mL (Escherichia coli [8]) [mm]	zone of inhibition at 10 µg/mL (Bacillus subtilis [9]) [mm]	MIC [10] [mg/L]	zone of inhibition at 100 µg/mL (Pseudomonas putida [11]) [mm]	zone of inhibition at 100 µg/mL (Bacillus subtilis [12]) [mm]	zone of inhibition at 50 µg/mL (Escherichia coli [13]) [mm]	zone of inhibition at 10 µg/mL (Pseudomonas putida [14]) [mm]	MIC (Escherichia coli [15]) [mg/L]	MIC (Bacillus subtilis [16]) [mg/L]	Activity (Bacillus subtilis [9])	Activity (Pseudomonas putida [14])	other results
CN[C@@H]1[C@H](O[C@H]2[C@H](O[C@H]3[C@H](O)[C@@H](O)[C@H](N=C(N)N)[C@@H](O)[C@@H]3N=C(N)N)O[C@@H](C)[C@]2(O)C=O)O[C@@H](CO)[C@H](O)[C@H]1O [STREPTOMYCIN]	49.2	57.4	67.2	33.2	4 (≈ 6.88 µM)	48.2	26.4	69.4	36.4	2 (≈ 3.44 µM)	72.2	73.2	49.4	38.2	4 (≈ 6.88 µM)	2 (≈ 3.44 µM)			
Cc1cc2nnc(-c3cccnc3)n2c(C)n1	39.7	46.3	56.3	25.3	2 (≈ 8.88 µM)	59.3	25.7	57.3	29.3	8 (≈ 35.5 µM)	69.7	65.7	39.3	36.7	8 (≈ 35.5 µM)	4 (≈ 17.8 µM)			
COc1ccc(-c2nnc3cc(C)nc(C)n23)cc1	20.7	39.7	41.3	12.3	16 (≈ 62.9 µM)	20.3	12.3	40.7	27.3	16 (≈ 62.9 µM)	40.7	59.7	21.3	11.7	16 (≈ 62.9 µM)	8 (≈ 31.5 µM)			
Cc1ccc(-c2nnc3cc(C)nc(C)n23)cc1	19.7	21.3	30.3	9.74	8 (≈ 33.6 µM)	40.3	11.7	40.2	12.3	32 (≈ 134 µM)	59.7	42.1	22.2	26.7	16 (≈ 67.1 µM)	16 (≈ 67.1 µM)			
Cc1cc2nnc(-c3ccc(F)cc3)n2c(C)n1	23.4	22.3	41.8	10.1	32 (≈ 132 µM)	15.3	11.3	26.4	13.7	16 (≈ 66 µM)	23.2	41.7	14.3	9.67	32 (≈ 132 µM)	16 (≈ 66 µM)			
O=C(N[C@H](CO)[C@H](O)c1ccc([N+](=O)[O-])cc1)C(Cl)Cl [CHLORAMPHENICOL]	53.2	57.2	77.2	35.3	2 (≈ 6.19 µM)	53.4	30.3	75.4	36.3	2 (≈ 6.19 µM)	71.2	74.2	50.4	29.3	4 (≈ 12.4 µM)	2 (≈ 6.19 µM)			
Cc1cc2nnc(-c3cccs3)n2c(C)n1	16.7	8.34	25.7	9.74	> 250	8.33	10.3	26.3		64 (≈ 278 µM)	12.3	13.7	18.7		64 (≈ 278 µM)	> 250	inactive	inactive	
Cc1cc2nnc(-c3ccc(Cl)cc3Cl)n2c(C)n1	48.3	47.7	66.3	29.7	4 (≈ 13.6 µM)	49.7	37.3	75.3	30.7	4 (≈ 13.6 µM)	67.7	67.3	63.7	29.3	1 (≈ 3.41 µM)	4 (≈ 13.6 µM)			
COc1ccc(OC)c(-c2nnc3cc(C)nc(C)n23)c1	8.33		13.7		> 250	9.66		19.3		> 250	13.7	11.3	10.7		125 (≈ 440 µM)	> 250	inactive	inactive	Activity (Bacillus subtilis [2]): inactive; Activity [4]: inactive; Activity (Escherichia coli [7]): inactive
Cc1cc2nnc(-c3ccc(Cl)cc3)n2c(C)n1	11.8		18.7		> 250	8.33		10.7		125 (≈ 483 µM)	14.6	11.3			> 250	> 250	inactive	inactive	Activity (Bacillus subtilis [2]): inactive; Activity [4]: inactive; Activity (Escherichia coli [7]): inactive; Activity (Escherichia coli [13]): inactive
Cc1cc2nnc(-c3ccc([N+](=O)[O-])cc3)n2c(C)n1	10.3	9.66	16.7		125 (≈ 464 µM)	12.3		13.7		> 250	19.7	14.3	8.33		250 (≈ 928 µM)	250 (≈ 928 µM)	inactive	inactive	Activity [4]: inactive; Activity (Escherichia coli [7]): inactive
Cc1cc2nnc(-c3ccc(Br)cc3)n2c(C)n1	41.7	40.7	60.7	26.7	4 (≈ 13.2 µM)	48.7	23.3	47.3	27.7	8 (≈ 26.4 µM)	66.7	59.3	31.7	28.3	16 (≈ 52.8 µM)	8 (≈ 26.4 µM)			
COc1cc(O)ccc1-c1nnc2cc(C)nc(C)n12	46.7	42.7	66.3	30.7	2 (≈ 7.4 µM)	49.3	29.3	66.7	27.3	4 (≈ 14.8 µM)	72.7	61.7	46.3	32.7	4 (≈ 14.8 µM)	8 (≈ 29.6 µM)			
Cc1cc2nnc(-c3ccccc3)n2c(C)n1		8.34	10.7		> 250	8.33		11.3		> 250	12.7	13.3			> 250	> 250	inactive	inactive	Activity [1]: inactive; Activity [4]: inactive; Activity (Escherichia coli [7]): inactive; Activity (Escherichia coli [13]): inactive

Reference: ChEMBL document CHEMBL1158340, “Organoiodine (III)-mediated synthesis of 3-aryl/heteroaryl-5,7-dimethyl-1,2,4-triazolo[4,3-c]pyrimidines as antibacterial agents” (2009)
